Reference: paper PMC5376172, “Identification and use of an alkane transporter plug-in for applications in biocatalysis and whole-cell biosensing of alkanes” (Scientific Reports, 2014)

Assays:
[1] = molecular target: T1, alkane hydroxylase complex (AlkB, AlkG, AlkT) (Ectopseudomonas oleovorans, UniProt P12691); test: whole-cell bio-oxidation, GC-FID of products; type: cell-based; conditions: E. coli DH1 / HB101 whole cells; DCPK inducer
T1 construct: integral membrane AlkB with electron transfer partners, co-expressed from pSTBFG(L) in whole E. coli cells; alkF also on plasmid; with Rubredoxin-2; Rubredoxin-NAD(+) reductase
T1 sequence (P12691 1-401): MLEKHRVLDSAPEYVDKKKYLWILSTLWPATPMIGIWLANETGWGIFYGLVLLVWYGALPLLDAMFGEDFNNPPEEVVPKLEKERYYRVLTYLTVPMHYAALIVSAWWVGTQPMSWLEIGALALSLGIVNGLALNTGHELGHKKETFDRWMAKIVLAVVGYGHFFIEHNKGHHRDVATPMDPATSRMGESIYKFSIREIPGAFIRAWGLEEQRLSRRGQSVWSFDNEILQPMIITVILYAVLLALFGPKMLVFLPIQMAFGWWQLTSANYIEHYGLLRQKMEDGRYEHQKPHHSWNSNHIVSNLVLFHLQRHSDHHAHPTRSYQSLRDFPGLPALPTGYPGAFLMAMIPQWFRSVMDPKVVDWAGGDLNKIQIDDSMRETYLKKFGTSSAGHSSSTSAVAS
T1 sequence (P00272 2-173 partner): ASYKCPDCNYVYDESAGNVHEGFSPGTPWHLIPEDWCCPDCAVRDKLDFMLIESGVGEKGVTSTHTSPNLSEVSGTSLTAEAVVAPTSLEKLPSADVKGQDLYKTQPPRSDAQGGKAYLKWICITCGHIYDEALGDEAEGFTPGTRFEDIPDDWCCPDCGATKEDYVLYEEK

AlkL = molecular target: T2, AlkL (Ectopseudomonas oleovorans, UniProt Q00595); test: whole-cell alkane uptake by GC and coupled AlkB oxidation, with and without alkL; type: cell-based; conditions: transport into E. coli; 15 min incubation for direct uptake; whole cells
T2 construct: full-length, untagged, from pSTBFGL (palkB promoter) in E. coli DH1 / HB101 with AlkBFGT
T2 sequence (Q00595 28-230): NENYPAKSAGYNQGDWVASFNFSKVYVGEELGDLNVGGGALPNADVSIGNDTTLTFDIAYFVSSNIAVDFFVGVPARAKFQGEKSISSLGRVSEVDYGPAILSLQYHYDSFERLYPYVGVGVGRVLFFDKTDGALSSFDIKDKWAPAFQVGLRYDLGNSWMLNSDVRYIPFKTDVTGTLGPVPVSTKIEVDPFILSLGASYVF

SMILES | whole-cell bio-oxidation, GC-FID of products [1] | whole-cell alkane uptake by GC and coupled AlkB oxidation, with and without alkL (AlkL)
CCCCCCCC [n-octane] | Oxidised products of n-octane were detected in all host cells containing either pSTBFG or pSTBFGL | 
CCCCCCCCCCCC [n-dodecane] |  | E.coli strains expressing alkL were also tested for a direct measurement of n-dodecane uptake
